{"source": "patent US10934298B2", "about": "“Substituted pyrazolo[1,5-a]pyrimidines for the treatment of medical disorders” (BIAL—BioTech Investments, Inc., priority 2016, dated 2021)", "molecular_target": "T1, glucocerebrosidase (Gcase) (Homo sapiens, UniProt P04062)", "T1 construct": "micellar solution containing 10 nM GCase and 100 nM saposin C", "T1 sequence (P04062 40-536)": "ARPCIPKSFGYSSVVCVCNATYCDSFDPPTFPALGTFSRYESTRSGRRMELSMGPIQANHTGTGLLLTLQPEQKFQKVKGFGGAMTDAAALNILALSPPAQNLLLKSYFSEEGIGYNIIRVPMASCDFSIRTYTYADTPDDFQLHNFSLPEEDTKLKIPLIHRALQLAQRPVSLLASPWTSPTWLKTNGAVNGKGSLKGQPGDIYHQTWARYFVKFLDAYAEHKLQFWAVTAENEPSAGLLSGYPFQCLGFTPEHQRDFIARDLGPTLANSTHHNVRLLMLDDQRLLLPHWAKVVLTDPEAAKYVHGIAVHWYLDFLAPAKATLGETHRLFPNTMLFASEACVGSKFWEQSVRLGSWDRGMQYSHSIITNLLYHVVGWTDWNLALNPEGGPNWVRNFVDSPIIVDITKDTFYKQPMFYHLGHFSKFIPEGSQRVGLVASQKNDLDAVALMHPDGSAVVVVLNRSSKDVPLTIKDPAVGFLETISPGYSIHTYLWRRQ", "assay": "Glucocerebrosidase (Gcase) activation assay with 4-methylumbelliferyl-beta-D-glucopyranoside substrate, saposin C and phosphatidylserine/triton micelles, fluorescence readout", "format": "biochemical", "how_it_was_run": "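10 nM GCase with 100 nM saposin C pre-incubated 30 min with compound in pH 4.7 phosphate/citrate PS/triton micelles, then mixed 1:1 with 2 mM 4-methylumbelliferyl-β-glucoside micellar substrate (stock level). Run 15 min at room temperature, stopped at pH 12.5; fluorescence 365/440 nm. Screened at 1.0 and 0.1 μM; 8-point curves from 5 μM.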", "data": [{"smiles": "Cc1cc(C)n2nc(Cl)c(C(=O)N[C@@H](C)C3CC3)c2n1", "note": "[III-34]", "values": [{"measurement": "Percent Gcase Activation, 0.1 μM Test Compound", "setting": "0.1 μM test compound, Table 3A", "result": "* (less than 10% Gcase activation)"}, {"measurement": "Percent Gcase Activation, 1 μM Test Compound", "setting": "1 μM test compound, Table 3A", "result": "+ (less than 30% Gcase activation)"}]}, {"smiles": "CCc1cc(N2CCOCC2)nc2c(C(=O)NC(C3CC3)C(F)(F)F)cnn12", "note": "(stereo not drawn) [III-238]", "values": [{"measurement": "Percent Gcase Activation, 0.1 μM Test Compound", "setting": "test compound at 0.1 μM", "result": "* (less than 10% Gcase activation)"}, {"measurement": "Percent Gcase Activation, 1 μM Test Compound", "setting": "test compound at 1.0 μM", "result": "+++ (Gcase activation greater than 60%)"}]}, {"smiles": "Cc1cc(-c2ccc(F)cn2)nc2c(C(=O)NC(C3CC3)C(F)(F)F)cnn12", "note": "(stereo not drawn) [III-204]", "values": [{"measurement": "Percent Gcase Activation, 0.1 μM Test Compound", "setting": "test compound at 0.1 μM", "result": "*** (greater than 20% Gcase activation)"}, {"measurement": "Percent Gcase Activation, 1 μM Test Compound", "setting": "test compound at 1.0 μM", "result": "+++ (Gcase activation greater than 60%)"}]}, {"smiles": "CNC(=O)c1cccc(-c2cc(C)n3ncc(C(=O)NC(C4CC4)C(F)(F)F)c3n2)c1", "note": "(stereo not drawn) [III-414]", "values": [{"measurement": "Percent Gcase Activation, 0.1 μM Test Compound", "setting": "0.1 μM test compound", "result": "* (less than 10% Gcase activation)"}, {"measurement": "Percent Gcase Activation, 1 μM Test Compound", "setting": "1 μM test compound", "result": "+++ (Gcase activation greater than 60%)"}]}, {"smiles": "Cc1cc(N2C[C@@H](c3ccccc3)OC2=O)nc2c(C(=O)NC(C3CC3)C(F)(F)F)cnn12", "note": "(stereo partly drawn) [III-315]", "values": [{"measurement": "Percent Gcase Activation, 0.1 μM Test Compound", "setting": "0.1 μM test compound", "result": "*** (greater than 20% Gcase activation)"}, {"measurement": "Percent Gcase Activation, 1 μM Test Compound", "setting": "1 μM test compound", "result": "+++ (Gcase activation greater than 60%)"}]}, {"smiles": "Cc1cc(-c2ccc(F)cc2)nc2c(C(=O)N[C@@H](C)C3CC3)cnn12", "note": "[III-7]", "values": [{"measurement": "Percent Gcase Activation, 0.1 μM Test Compound", "setting": "0.1 μM test compound, Table 3A", "result": "** (Gcase activation in the range of 10% up to 20%)"}, {"measurement": "Percent Gcase Activation, 1 μM Test Compound", "setting": "1 μM test compound, Table 3A", "result": "+++ (Gcase activation greater than 60%)"}]}, {"smiles": "C#CC(C)(C)NC(=O)c1cnn2c(C)cc(-c3cccc(F)c3)nc12", "note": "[III-75]", "values": [{"measurement": "Percent Gcase Activation, 0.1 μM Test Compound", "setting": "0.1 μM test compound, Table 3A", "result": "*** (greater than 20% Gcase activation)"}, {"measurement": "Percent Gcase Activation, 1 μM Test Compound", "setting": "1 μM test compound, Table 3A", "result": "+++ (Gcase activation greater than 60%)"}]}, {"smiles": "Cc1cc(-c2ccc(C#N)nc2)nc2c(C(=O)NC(C)(C)C3CC3)cnn12", "note": "[III-370]", "values": [{"measurement": "Percent Gcase Activation, 0.1 μM Test Compound", "setting": "0.1 μM test compound", "result": "* (less than 10% Gcase activation)"}, {"measurement": "Percent Gcase Activation, 1 μM Test Compound", "setting": "1 μM test compound", "result": "+++ (Gcase activation greater than 60%)"}]}, {"smiles": "Cc1cc(-c2cnccc2F)nc2c(C(=O)NC(C3CC3)C(F)(F)F)cnn12", "note": "(stereo not drawn) [III-124]", "values": [{"measurement": "Percent Gcase Activation, 0.1 μM Test Compound", "setting": "test compound at 0.1 μM", "result": "*** (greater than 20% Gcase activation)"}, {"measurement": "Percent Gcase Activation, 1 μM Test Compound", "setting": "test compound at 1.0 μM", "result": "+++ (Gcase activation greater than 60%)"}]}, {"smiles": "Cc1cc(N2CCCN(C(C)C)C2=O)nc2c(C(=O)NC(C)(C)C)cnn12", "note": "[III-258]", "values": [{"measurement": "Percent Gcase Activation, 0.1 μM Test Compound", "setting": "test compound at 0.1 μM", "result": "* (less than 10% Gcase activation)"}, {"measurement": "Percent Gcase Activation, 1 μM Test Compound", "setting": "test compound at 1.0 μM", "result": "+ (less than 30% Gcase activation)"}]}, {"smiles": "Cc1cc(-c2cc(F)c3ocnc3c2)nc2c(C(=O)NC(C)C(F)(F)F)cnn12", "note": "(stereo not drawn) [III-295]", "values": [{"measurement": "Percent Gcase Activation, 0.1 μM Test Compound", "setting": "0.1 μM test compound", "result": "*** (greater than 20% Gcase activation)"}, {"measurement": "Percent Gcase Activation, 1 μM Test Compound", "setting": "1 μM test compound", "result": "+++ (Gcase activation greater than 60%)"}]}, {"smiles": "Cc1cc(-c2ccc3c(c2)OCO3)nc2c(C(=O)N[C@@H](C)C3CC3)cnn12", "note": "[III-210]", "values": [{"measurement": "Percent Gcase Activation, 0.1 μM Test Compound", "setting": "test compound at 0.1 μM", "result": "*** (greater than 20% Gcase activation)"}, {"measurement": "Percent Gcase Activation, 1 μM Test Compound", "setting": "test compound at 1.0 μM", "result": "+++ (Gcase activation greater than 60%)"}]}, {"smiles": "Cc1cc(-c2cccc(Cl)n2)nc2c(C(=O)NC(C)C(F)(F)F)cnn12", "note": "(stereo not drawn) [III-234]", "values": [{"measurement": "Percent Gcase Activation, 0.1 μM Test Compound", "setting": "test compound at 0.1 μM", "result": "*** (greater than 20% Gcase activation)"}, {"measurement": "Percent Gcase Activation, 1 μM Test Compound", "setting": "test compound at 1.0 μM", "result": "+++ (Gcase activation greater than 60%)"}]}, {"smiles": "COc1cc(-c2cc(C)n3ncc(C(=O)N[C@@H](C)C4CC4)c3n2)ccc1F", "note": "[III-145]", "values": [{"measurement": "Percent Gcase Activation, 0.1 μM Test Compound", "setting": "test compound at 0.1 μM", "result": "*** (greater than 20% Gcase activation)"}, {"measurement": "Percent Gcase Activation, 1 μM Test Compound", "setting": "test compound at 1.0 μM", "result": "+++ (Gcase activation greater than 60%)"}]}, {"smiles": "Cc1cncc(-c2cc(C)n3ncc(C(=O)NC(C)C(F)(F)F)c3n2)c1", "note": "(stereo not drawn) [III-282]", "values": [{"measurement": "Percent Gcase Activation, 0.1 μM Test Compound", "setting": "test compound at 0.1 μM", "result": "** (Gcase activation in the range of 10% up to 20%)"}, {"measurement": "Percent Gcase Activation, 1 μM Test Compound", "setting": "test compound at 1.0 μM", "result": "+++ (Gcase activation greater than 60%)"}]}, {"smiles": "Cc1cc(N2CCC(F)(F)CC2)nc2c(C(=O)NC(C)C3CC3)cnn12", "note": "(stereo not drawn) [III-60]", "values": [{"measurement": "Percent Gcase Activation, 0.1 μM Test Compound", "setting": "0.1 μM test compound, Table 3A", "result": "* (less than 10% Gcase activation)"}, {"measurement": "Percent Gcase Activation, 1 μM Test Compound", "setting": "1 μM test compound, Table 3A", "result": "++ (Gcase activation in the range of 30% up to 60%)"}]}, {"smiles": "Cc1cc(-c2ccns2)nc2c(C(=O)NC(C)C(F)(F)F)cnn12", "note": "(stereo not drawn) [III-178]", "values": [{"measurement": "Percent Gcase Activation, 0.1 μM Test Compound", "setting": "test compound at 0.1 μM", "result": "** (Gcase activation in the range of 10% up to 20%)"}, {"measurement": "Percent Gcase Activation, 1 μM Test Compound", "setting": "test compound at 1.0 μM", "result": "+++ (Gcase activation greater than 60%)"}]}, {"smiles": "Cc1cc(N2CCN(C(C)C)C2=O)nc2c(C(=O)N[C@H](C3CC3)C(F)(F)F)cnn12", "note": "[III-327]", "values": [{"measurement": "Percent Gcase Activation, 0.1 μM Test Compound", "setting": "0.1 μM test compound", "result": "** (Gcase activation in the range of 10% up to 20%)"}, {"measurement": "Percent Gcase Activation, 1 μM Test Compound", "setting": "1 μM test compound", "result": "+++ (Gcase activation greater than 60%)"}]}]}
